In PubChem BioAssay (NCI):
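1) Cells in 96-well plates. 2) Compound, 48 h, 5 concentrations. 3) Linear interpolation between surrounding doses. 4) Unreached endpoint = highest concentration. Here, GI50 denotes the concentration required for 50% inhibition of growth. TGI denotes the concentration required for complete inhibition of growth.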

Key:
Test in all cases: NCI anticancer screen, dose series, 48 h
SK-MEL-28 melanoma = test system: SK-MEL-28 melanoma
ACHN renal = test system: ACHN renal
SW-620 colon = test system: SW-620 colon
UO-31 renal = test system: UO-31 renal
MALME-3M melanoma = test system: MALME-3M melanoma
CAKI-1 renal = test system: CAKI-1 renal
RPMI-8226 leukemia = test system: RPMI-8226 leukemia
NCI-H522 lung = test system: NCI-H522 lung
OVCAR-5 ovarian = test system: OVCAR-5 ovarian
DU-145 prostate = test system: DU-145 prostate
MOLT-4 leukemia = test system: MOLT-4 leukemia
HOP-92 NSCLC = test system: HOP-92 NSCLC
SK-OV-3 ovarian = test system: SK-OV-3 ovarian

SMILES	TGI (SK-MEL-28 melanoma) [µM]	TGI (ACHN renal) [µM]	TGI (SW-620 colon) [µM]	TGI (UO-31 renal) [µM]	TGI (MALME-3M melanoma) [µM]	TGI (CAKI-1 renal) [µM]	TGI (RPMI-8226 leukemia) [µM]	TGI (NCI-H522 lung) [µM]	TGI (OVCAR-5 ovarian) [µM]	TGI (DU-145 prostate) [µM]	TGI (MOLT-4 leukemia) [µM]	TGI (HOP-92 NSCLC) [µM]	TGI (SK-OV-3 ovarian) [µM]	GI50 (CAKI-1 renal) [µM]	GI50 (NCI-H522 lung) [µM]
CC1=C(S(=O)c2ccc(C)cc2)CCC2(CCCCO2)O1 (stereo unspecified)	> 100	> 100	> 100	> 100	> 100	> 100	> 100	> 100	> 100	> 100	> 100				
N#CC12CC=C(c3ccccc3)N=C1NC(c1ccccc1)=CC2 (stereo unspecified)	> 100	> 100	> 100	> 100	> 100		73.8	> 100	> 100	> 100	55.1	92.2	> 100		
CC1C2CC(CC2O)C1(C)C (stereo unspecified)	> 100	> 100	> 100	> 100	> 100	> 100		> 100	> 100	> 100	> 100	> 100	> 100		
COc1ccc2[nH]c3c(C)c4ccnc(NCCCN(C)CCCN)c4c(C)c3c2c1	1.61	0.514		3.23	1.19	0.551	> 100	0.137	0.725	0.652	> 100		2.47		
Cc1ccc(S(=O)(=O)Nn2c(C)cc3ccc(S(=O)(=O)Nc4ccccc4[N+](=O)[O-])cc3c2=O)cc1	> 100	> 100	> 100	> 100	> 100	> 100	> 100	> 100	> 100	> 100	> 100	> 100	> 100		
CC(=O)C1=C(C)N(c2ccc(C)cc2)C2(O)C=CC(=O)C3=C(O)c4ccccc4C(=O)C312 (stereo unspecified)	34.5	36.8	> 100	34.8	5.07	35.8	> 100	32.5	56.2	> 100	> 100	> 100	> 100		
CSc1ncc2c(C#N)c3ccccn3c(=O)c2n1	> 100	> 100	> 100	> 100	> 100	> 100	> 100		> 100	> 100	> 100	> 100	> 100		
Nc1ncnc2c1ccn2CC=C(CO)CO	> 100	> 100	> 100	> 100	> 100	> 100	> 100	> 100	> 100	> 100	> 100	> 100	> 100		
CC(=O)N1N=C(c2ccccc2Nc2ccccc2C2=NN(C(C)=O)C(c3ccccc3)O2)OC1c1ccccc1 (stereo unspecified)	> 100	> 100	> 100	> 100	> 100		> 100	> 100	> 100	> 100	> 100	> 100	> 100		
O=CN(O)CC(=O)O.[Ni]	> 100	> 100	> 100	> 100	> 100	> 100	> 100	> 100	> 100	> 100	> 100	> 100	> 100	> 100	> 100
CN1C(=O)CN=C(c2ccccc2F)c2cc(N=C=S)ccc21		> 100	> 100	> 100	> 100	25.2		45.2	> 100	> 100		> 100	> 100		
NS(=O)(=O)c1ccc(N=Nc2ccc(O)c(O)c2)cc1	37.2	17	41.4	26.4	54.9	> 100	39.7	3.1	> 100	> 100	> 100	69.3	67		
Nc1nc(Cl)cc(NCC2(CO)CC(c3ccccc3)C2)n1 (stereo unspecified)	> 100	> 100	> 100	> 100	> 100	> 100	> 100	> 100	> 100	> 100	93.9	> 100	> 100		
CNC(=O)C1CCC(=O)N1CN(C(C)=O)c1ccccc1 (stereo unspecified)	> 100	> 100	> 100	> 100	> 100	> 100	> 100	> 100	> 100	> 100	> 100	> 100	> 100		
CC(C)(C)C(=O)CC(=O)C(F)(F)C(F)(F)C(F)(F)F.CC(C)(C)C(=O)CC(=O)C(F)(F)C(F)(F)C(F)(F)F.CC(C)(C)C(=O)CC(=O)C(F)(F)C(F)(F)C(F)(F)F.[Er]	> 100	> 100	> 100	> 100	> 100	> 100	> 100	> 100	> 100	> 100			> 100		94
Nc1cccc(/C=C/CN2CCN(CCOC(c3ccccc3)c3ccccc3)CC2)c1	27.1	32.2	33.9	27.4	34.7	34.1	15.2	27.7	30.5	26.4	19.2	25.4	27		
S=C1NCCN1C(=S)NC1CCCCC1	> 100	> 100	> 100	81.6	64.9	74.5	> 100	69	> 100	> 100	> 100	66.2	> 100		
Cc1cc(CN(Cc2ccccc2)Cc2nc3ccccc3[nH]2)c(O)c(CN(Cc2nc3ccccc3[nH]2)Cc2nc3ccccc3[nH]2)c1	> 100		> 100	36.7	> 93.2	> 100	38.4	> 69.5	> 100	> 100	42.1	14.7	> 52.3		
COC(=O)c1ccc(-n2c(C)nc(=O)c(-c3ccccc3)c2C)cc1	> 100	> 100	> 100	> 100	> 100	> 100	> 100	> 100	> 100	> 100	> 100	> 100	> 100		

SMILES	TGI (SK-MEL-28 melanoma) [µM]	TGI (ACHN renal) [µM]	TGI (SW-620 colon) [µM]	TGI (UO-31 renal) [µM]	TGI (MALME-3M melanoma) [µM]	TGI (CAKI-1 renal) [µM]	TGI (RPMI-8226 leukemia) [µM]	TGI (NCI-H522 lung) [µM]	TGI (OVCAR-5 ovarian) [µM]	TGI (DU-145 prostate) [µM]	TGI (MOLT-4 leukemia) [µM]	TGI (HOP-92 NSCLC) [µM]	TGI (SK-OV-3 ovarian) [µM]	GI50 (CAKI-1 renal) [µM]	GI50 (NCI-H522 lung) [µM]
O=C1CC(NC2CC(=O)c3c(Br)sc(Br)c32)c2c(Br)sc(Br)c21 (stereo unspecified)	> 55.4	5.22	4.95	4.46	5.62	9.72		3.69	41.4	16.5	> 100	21.5	32.6		
Oc1ccc(NCc2cc(O)ccc2O)cc1	45.7	29.6	> 100	29.4	34.3	34.9	44.4		35.9	32.9	7.81	31.5	36.7		
O=C1NC(=O)/C(=C/c2ccc(S(=O)(=O)N/N=C/c3ccccc3)cc2)N1	> 100	> 100	> 100	> 100	> 100	> 100	> 100		> 100	> 100	> 100	> 100	> 100		
COC(=N)c1ncn(Cc2ccccc2)c1N	> 100	> 100	> 100		> 100	> 100	> 100	> 100	> 100	> 100		> 100	> 100		
CCn1c(SCC(=O)NNC(=S)Nc2ccc(Cl)cc2)nc2ccccc2c1=O	> 100	> 100	> 100	> 100	> 100	> 100	94.8	> 100	> 100	> 100	> 100		> 100		
N=c1oc2ccc([N+](=O)[O-])cc2cc1C(=O)Nc1ccccn1	> 100	> 100	> 100		77.6	> 100	> 100	86.2	> 100	> 100	> 100	> 100	> 100		
CSC1=N/C(=C\c2ccccc2)C(=O)N1CN1CCOCC1	> 100	> 100	> 100	> 100	> 100		> 100	> 100	> 100	> 100	> 100	> 100	> 100		
C[As](C)SCC(NC(=O)CCC(N)C(=O)O)C(=O)NCC(=O)O.Cl.c1ccncc1 (stereo unspecified)	2.01	1.1	6.59	1.31	0.119	0.652	1.56	0.267	6.89	0.556		0.763	> 47.8		
Cc1ccc(O)c(-c2cc(-c3ccccc3)nc(/N=C\c3ccccc3)n2)c1	> 100	29.8	> 100	13.5	> 100			> 100	> 100	> 100	> 100	> 100			
O=CN1CCN(C(=O)c2ccc(Cl)cc2)C1=S	39.6	31	36.5		41.8	27	17.1	31.2	35.6	29.1	48.2	14.9	74.6		
CCSC1=C(C#N)C2(CCCCC2)C2=C(CC(C)(C)CC2=O)N1	> 100	74.2	> 100	39.8	78.2	> 100	> 100	> 100	> 100	60.8	> 100	43.1			
Cc1ccc(N(C)S(=O)(=O)c2ccccc2)cc1	> 100	> 100	> 100	> 100	> 100	> 100	> 100	> 100	> 100	> 100	> 100		> 100		
COc1ccc(/C=N/NS(=O)(=O)c2ccc(/C=C3\NC(=O)N(C)C3=O)cc2)cc1	> 100	> 100	> 100	> 100	> 100	> 100	> 100		> 100	> 100	> 100	> 100	> 100		
c1csc(-c2sc(-c3ccsc3)cc2Cc2ccsc2)c1	> 10		> 10		> 10	> 10	> 10			> 10	> 10	> 10	> 10		
CC(=O)OCC1OC(N2C(=O)CC(N)=Nc3ccccc32)C(OC(C)=O)C(OC(C)=O)C1OC(C)=O (stereo unspecified)	> 100	> 100	> 100	> 100	> 100	> 100	49.8		> 100	> 100	57.3	> 100	> 100		
O=C(Nc1ccc(Cl)cc1Cl)c1cc2nc3ccccc3c(=O)n2c2ccccc12	> 10		> 10	> 10	> 10	> 10		> 10	> 10	> 10		> 10	> 10		
COc1ccc(C(=O)/C=C/c2ccc(OCC#N)cc2)cc1OC	29.5	76.1	23.4	32.6	38.8	37.5		32.5		23.8	63.6	44.3	> 100		
Clc1cc2nnn(C3CCCCO3)c2cc1Cl (stereo unspecified)		> 100		> 100	> 100	> 100	> 100	> 100	> 100	> 100	> 100		> 100		
